A word on the IC50: it is the midpoint of a concentration-inhibition curve. One may read the solubility as the dissolved amount per volume that the medium holds. A high value points to much dissolved substance.

The values below come from patent US8431583B2, “Use of purine derivatives for the manufacture of a medicament” (Centre National de la Recherche Scientifique, priority 2007, dated 2013).

In one data set the target is CK1δ/e. The data set is described as follows: Kinase assay CK1. Particulars: read-out: IC50 CK1; 15 μM ATP, 30° C., buffer A.
Data set [1] concerns B2 lymphocytes originating from patients. The data set is described as follows: Induction of cell death of B chronic lymphoid leukemia cells (B2 lymphocytes) from patients. The data set is classed as cell-based, human. Particulars: B2 lymphocytes from CLL patients, MTS reduction / LDH release. As for the experimental part:
The B2 lymphocytes are lymphocytes involved in […] chronic lymphoid leukemia.
Cell viability is determined by the reduction of 3-(4,5-dimethylthiazol-2-yl)-5-(3-carboxymethoxyphenyl)-2-(4-sulfophenyl)-2H-tetrazolium (MTS).
Cell death is determined by the measurement of the level of the activity of the lactate dehydrogenase (LDH) released during lysis of the cells. The two processes are described in detail in “Ribas J. and Boix J. Cell differentiation, caspase inhibition, and macromolecular synthesis blockage, but not BCL-2 or BCL-XL proteins protect SH-SY5Y cells from apoptosis triggered by two CDK inhibitory drugs.
In table 2, the values shown are the mean inhibitory concentration IC50 values, expressed in μM.
On the technique in general: Tetrazolium dyes change colour on reduction, which living cells bring about.

In another data set the target is T1, DYRK1A (Homo sapiens, UniProt Q13627).
T1 construct: host or cells: E. coli
The data set is described as follows: Kinase assay DYRK1A. It is filed as biochemical. Particulars: 15 μM ATP, 30° C. As to the method: (§1) Assaying is carried out with 1 mg histone H1/ml, in the presence of 15 μm [γ-^33P]ATP (3000 Ci/mmol; 10 mCi/ml) in a final volume of 30 μl. After incubating at 30° C. for 30 min, 25 μl aliquots of supernatant were deposited on 2.5×3 cm pieces of Whatman P8 phosphocellulose papers and then, 20 sec. later, the filters were washed 5 times in a solution of 10 ml of phosphoric acid/liter. The filters are subsequently counted in the presence of 1 ml of ACS (Amersham).
DYRK1A (human, recombinant, expressed in E. coli cells) is assayed like CDK1/cyclin B.
(§2) The mean inhibitory concentration IC50 values were calculated from the dose/response curves and are listed in μM in the following table I.

A further data set has as its target Erk2 (Homo sapiens, UniProt P28482). The data set is described as follows: Kinase assay Erk2. The data set is classed as biochemical. The settings on record: 15 μM ATP, 30° C. As to the method: as §2
In another data set the target is T2, CDK9/cyclin T (Homo sapiens, UniProt P50750).
T2 construct: host or cells: insect cells
Kind of data set: Kinase assay CDK9/cyclin T. It is filed as biochemical. Particulars: 15 μM ATP, 30° C., pRB fragment substrate. As for the experimental part:
as §1, §2

A further data set addresses GSK-3 α/β. Kind of data set: Kinase assay GSK-3α/β. The settings on record: 15 μM ATP, 30° C., buffer A, GS-1 substrate. The data set is classed as biochemical, pig. As for the experimental part:
After incubating at 30° C. for 30 min, 25 μl aliquots of supernatant were deposited on 2.5×3 cm pieces of Whatman P8 phosphocellulose papers and then, 20 sec. later, the filters were washed 5 times in a solution of 10 ml of phosphoric acid/liter. The filters are subsequently counted in the presence of 1 ml of ACS (Amersham).
as §2

The nature of the next data set: Solubility in water. The data set is classed as physicochemical.
For a further data set, the system named is B-CLL. Particulars: B-CLL patients; cited from earlier work.

T2 sequence (P50750 whole entry): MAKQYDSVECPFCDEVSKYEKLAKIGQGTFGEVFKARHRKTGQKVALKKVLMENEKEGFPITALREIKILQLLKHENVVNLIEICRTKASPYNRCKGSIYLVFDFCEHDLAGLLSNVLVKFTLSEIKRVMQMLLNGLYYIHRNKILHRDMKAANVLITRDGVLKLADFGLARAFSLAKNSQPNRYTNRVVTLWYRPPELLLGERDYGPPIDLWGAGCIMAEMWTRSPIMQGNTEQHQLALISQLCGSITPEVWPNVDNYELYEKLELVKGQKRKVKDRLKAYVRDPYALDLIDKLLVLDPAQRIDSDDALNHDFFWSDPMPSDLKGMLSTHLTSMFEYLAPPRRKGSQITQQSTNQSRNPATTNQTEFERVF
T2 sequence (O60563 whole entry partner): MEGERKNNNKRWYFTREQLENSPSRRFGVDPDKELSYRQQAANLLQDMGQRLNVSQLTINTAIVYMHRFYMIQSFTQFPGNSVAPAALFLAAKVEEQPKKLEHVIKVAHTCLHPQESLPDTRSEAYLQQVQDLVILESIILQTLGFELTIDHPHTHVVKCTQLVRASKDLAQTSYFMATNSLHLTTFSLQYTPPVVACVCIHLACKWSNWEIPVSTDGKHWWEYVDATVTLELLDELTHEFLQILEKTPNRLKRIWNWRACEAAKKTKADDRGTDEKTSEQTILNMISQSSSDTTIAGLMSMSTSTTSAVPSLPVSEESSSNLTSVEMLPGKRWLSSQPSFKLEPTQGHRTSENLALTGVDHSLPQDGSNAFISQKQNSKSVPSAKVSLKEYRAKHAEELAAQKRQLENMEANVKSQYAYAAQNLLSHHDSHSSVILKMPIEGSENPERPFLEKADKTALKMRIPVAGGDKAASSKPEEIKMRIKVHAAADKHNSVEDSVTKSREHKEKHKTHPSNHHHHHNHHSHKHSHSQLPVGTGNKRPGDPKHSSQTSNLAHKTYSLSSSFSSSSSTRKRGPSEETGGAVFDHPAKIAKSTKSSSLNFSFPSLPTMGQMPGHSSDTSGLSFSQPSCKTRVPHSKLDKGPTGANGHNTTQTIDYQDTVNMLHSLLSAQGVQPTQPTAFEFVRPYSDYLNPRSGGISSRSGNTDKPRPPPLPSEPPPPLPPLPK
Erk2, sequence (P28482 whole entry, species assumed): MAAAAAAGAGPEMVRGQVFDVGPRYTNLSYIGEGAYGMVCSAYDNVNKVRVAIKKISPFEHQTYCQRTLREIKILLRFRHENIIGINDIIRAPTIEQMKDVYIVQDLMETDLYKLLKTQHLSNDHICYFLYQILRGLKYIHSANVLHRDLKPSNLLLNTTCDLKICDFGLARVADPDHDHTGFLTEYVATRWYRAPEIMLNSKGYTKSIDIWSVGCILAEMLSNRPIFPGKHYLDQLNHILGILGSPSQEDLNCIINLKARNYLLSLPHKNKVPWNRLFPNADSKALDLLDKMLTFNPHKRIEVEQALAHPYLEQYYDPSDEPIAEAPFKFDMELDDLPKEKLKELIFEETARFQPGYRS

Turning to `CC[C@H](CO)Nc1nc(NCc2ccc(-c3ccccn3)cc2)c2ncn(C(C)C)c2n1` [Compound of formula Ia], the IC50 on CK1δ/e amounted to 400 nM; in data set [1] (Homo sapiens, Lymphocyte) it was 200 nM; against DYRK1A, 3600 nM; at Erk2, 3600 nM; against CDK9/cyclin T, 180 nM.
Consider `CC[C@@H](CO)Nc1nc(NCc2ccc(-c3ccccn3)cc2)c2ncn(C(C)C)c2n1` [Compound of formula Ib], for which the half-maximal inhibitory concentration (IC50) at GSK-3 α/β was at least 30000 nM; at CK1δ/e, 610 nM; in data set [1] (Homo sapiens, Lymphocyte), 90 nM; against DYRK1A, 900 nM; against Erk2, 2100 nM; on CDK9/cyclin T, 110 nM. The molecule further registered a solubility in “Solubility in water” of 3.3 µg/mL.
On to `CCC(CO)Nc1nc(NCc2ccc(-c3ccccc3)cc2)c2ncn(C(C)C)c2n1` (stereo not drawn) [Compound of formula Ic], for which the solubility in the data set “Solubility in water” stood at 0.5 µg/mL. The same molecule came in with an IC50 in data set [1] (Homo sapiens, Lymphocyte) of 1250 nM.
`CC(C)n1cnc2c(NCc3ccc(-c4ccccn4)cc3)nc(NC(CO)CO)nc21` [Compound of formula Id, 2-(1,3-Dihydroxyprop-2-ylamino)-6-[4-(2-pyridyl)phenylmethylamino]-9-isopropylpurine] registered a 50% inhibitory concentration (IC50) in data set [1] (Homo sapiens, Lymphocyte) of 250 nM.
Same read-out and setting: the value for `CC(C)[C@H](CO)Nc1nc(NCc2ccc(-c3ccccn3)cc2)c2ncn(C(C)C)c2n1` [Compound of formula Ie] was 510 nM.
In turn, `CC(C)[C@H](CO)Nc1nc(NCc2ccc(-c3ccccn3)cc2)c2ncn(C(C)C)c2n1` [Compound of formula If] displayed an IC50 in data set [1] of 380 nM.
As to “alemtuzumab: therapeutic antibody against an antigen expressed on leukocytes and leukemic B lymphocytes of CLL”, in the data set with B-CLL, the hematologic response was 33%.
